Data published in patent publication EP4635945A1, “CRYSTAL FORM OF PROXIMOD, PREPARATION METHOD THEREFOR, AND USE THEREOF” (Jiankuan (Suzhou) Biotechnology Co., Ltd, priority 2022, dated 2024).

Assays:
Type in all cases: physicochemical
[1] = Solid-state stability of crystal forms on storage (XRPD, purity); settings: for Maximum single impurity after storage / Crystal form after storage / Main purity after storage: 30 days, exposed
Procedure: The crystal forms of the samples before and after storage were tested by XRPD.

[2] = Dynamic solubility in biorelevant media and buffers at 37 °C (HPLC, XRPD of solids)
Procedure: After 1 hour/2 hours/4 hours/24 hours, the saturated solutions were obtained by filtration. The actual concentrations of the samples in the saturated solutions were determined by high-performance liquid chromatography (HPLC) (the filtered solutions were diluted as needed), and the crystal forms of the solids before and after the experiment were characterized by XRPD to check whether phase changes occurred.

[3] = Intrinsic dissolution of tableted crystal forms; settings: hydrochloride
[4] = Mechanical stability: grinding in agate mortar, XRPD; settings: 50 mg ground with an agate mortar for 5 minutes; hydrochloride
Excerpt: The samples before and after ground were detected by XRPD.

[5] = Hygroscopicity by dynamic vapor sorption (DVS)
Excerpt: (§1) In the examples of the present application, the instrument used for the X-ray powder diffraction test is the D2 Phaser produced by Bruker. The instrument used for the differential scanning calorimetry test is the differential scanning calorimeter DSC 250 produced by TA Instruments. The instrument used for the thermogravimetric analysis is the thermogravimetric analyzer TGA 55 produced by TA Instruments. The instrument used for the FT-IR test is the Fourier infrared spectrometer ID1-summit produced by Thermo. The instrument used for the dynamic vapor sorption test is the DVS Intrinsic produced by Surface Measurement Systems (SMS). The instrument used for the microscopy is the microscope NJF-120A produced by Suzhou Nanguang Electronic Technology Co., Ltd.

[6] = Fluidity: angle of repose, bulk and tap density, Hausner ratio; settings: hydrochloride
Procedure: This experiment was performed by using a tap density tester according to the fixed-volume method. The specific operations are as follows: The weighed powder, with a volume of 50 mL, was loaded into a graduated cylinder, and the graduated cylinder was secured onto a support. The graduated cylinder was set to be vibrated at 55 ± 5 vibrations per minute for 6-8 minutes. The volume change of the powder was measured in a measuring cup. The ratio of the weight of the powder to the volume (50 mL) before tapping is the bulk density of the powder, and the ratio of the weight of the powder to the volume after tapping is the tapped density of the powder.
The Hausner ratio and the compression degree were converted in the following methods. Hausner ratio = tap density/bulk density [formula] Compression degree = (tapdensity−bulkdensity)/tap density [formula]
This experiment was performed by a pouring method, and the angles of repose of the drug substances of the two crystal forms were measured in combination with a residual cone method to analyze their fluidities. The specific operations are as follows: The powder was poured onto the center of a disk with a specific diameter, and when the material on the slope of the powder pile began to flow freely out along the periphery of the disk, the pouring of the powder was stopped. The height (h) of the cone was measured, and the angle of repose was calculated in combination with the diameter (2r) of the disk, that is, tanQ = h/r.

[7] = Adhesiveness: PE bag adhesive rate; settings: flipped at 5 rpm, 10 minutes in each direction; hydrochloride
Procedure: The bags were sealed, flipped at a rotational speed of 5 rpm for 10 minutes, and continued to be flipped in a different flipping direction at a fixed rotational speed for 10 minutes. The materials were poured out of the bags, and the materials remaining in the bags were accurately weighed to calculate the adhesive rate.
The adhesive rate was calculated according to the following formula: Adhesive rate = (initialmaterialweight-remainingmaterialweight)/contact surface area. [formula]

[8] = Microscopic morphology and particle size; settings: microscopy
Excerpt: as §1

[9] = FaSSIF (pH of 8.0), 1 hour, hydrochloride
[10] = FaSSIF (pH of 8.0), 2 hours, hydrochloride
[11] = pH = 4.0 acetic acid-sodium acetate buffer, 1 hour, hydrochloride
[12] = pH = 4.0 acetic acid-sodium acetate buffer, 2 hours, hydrochloride
[13] = pH = 4.0 acetic acid-sodium acetate buffer, 4 hours, hydrochloride
[14] = pH = 4.0 acetic acid-sodium acetate buffer, 24 hours, hydrochloride
[15] = pH = 6.8 phosphate buffer, 4 hours
[16] = pH = 6.8 phosphate buffer, 24 hours

CCCc1nc(-c2ccc(-c3ccc(CCC(N)(CO)CO)cc3)cc2)co1.Cl [Crystal form B, 2-amino-2-{2-(4'-(2-propyloxazol-4-yl)-[1,1'-biphenyl]-4-yl)ethyl}-1,3-propanediol hydrochloride]
Maximum single impurity after storage ([1]; At 40 °C/75% RH): Maximum single impurity: 0.04 A%
Crystal form after storage ([1]; At 40 °C/75% RH, hydrochloride): Crystal form B
Main purity after storage ([1]; At 40 °C/75% RH, hydrochloride): Main purity: 99.80 A%
Maximum single impurity after storage ([1]; At 60 °C): Maximum single impurity: 0.04 A%
Crystal form after storage ([1]; At 60 °C, hydrochloride): Crystal form B
Main purity after storage ([1]; At 60 °C, hydrochloride): Main purity: 99.79 A%
Maximum single impurity after storage ([1]; At 92.5%RH): Maximum single impurity: 0.04 A%
Crystal form after storage ([1]; At 92.5%RH, hydrochloride): Crystal form B
Main purity after storage ([1]; At 92.5%RH, hydrochloride): Main purity: 99.83 A%
Maximum single impurity before storage ([1]; Before storage): Maximum single impurity: 0.04 A%
Main purity before storage ([1]; Before storage, hydrochloride): Main purity: 99.78 A%
Crystal form after storage ([1]; In light, hydrochloride): Crystal form B
Main purity after storage ([1]; In light, hydrochloride): Main purity: 99.19 A%
Maximum single impurity after storage ([1]; In light, hydrochloride): Maximum single impurity: 0.21 A%
Time the crystal form remains stable ([1]; at 60 °C, 92.5% RH, and 45 °C/75% RH): at least 30 days
Crystal form of the solid [2, 9]: Free alkali
Solubility [2, 9]: 70 µg/mL
Crystal form of the solid [2, 10]: Free alkali
Solubility [2, 10]: 200 µg/mL
Crystal form of the solid ([2]; FaSSIF (pH of 8.0), 4 hours): Free alkali
Solubility ([2]; FaSSIF (pH of 8.0), 4 hours, hydrochloride): 410 µg/mL
Crystal form of the solid ([2]; FaSSIF (pH of 8.0), 24 hours): Free alkali
Solubility ([2]; FaSSIF (pH of 8.0), 24 hours, hydrochloride): 100 µg/mL
Solubility ([2]; FeSSIF (pH of 5.0), 1 hour, hydrochloride): 2580 µg/mL
Solubility ([2]; FeSSIF (pH of 5.0), 2 hours, hydrochloride): 2300 µg/mL
Solubility ([2]; FeSSIF (pH of 5.0), 4 hours, hydrochloride): 2560 µg/mL
Crystal form of the solid ([2]; FeSSIF (pH of 5.0), 24 hours): no crystal form change
Solubility ([2]; FeSSIF (pH of 5.0), 24 hours, hydrochloride): 3460 µg/mL
Solubility ([2]; SGF (pH of 1.0), 1 hour, hydrochloride): 310 µg/mL
Solubility ([2]; SGF (pH of 1.0), 2 hours, hydrochloride): 270 µg/mL
Solubility ([2]; SGF (pH of 1.0), 4 hours, hydrochloride): 290 µg/mL
Solubility ([2]; SGF (pH of 1.0), 24 hours, hydrochloride): 310 µg/mL
Crystal form of the solid ([2]; Water, 1 hour, hydrochloride): B + F
Solubility ([2]; Water, 1 hour, hydrochloride): 1910 µg/mL
Crystal form of the solid ([2]; Water, 2 hours, hydrochloride): B + F
Solubility ([2]; Water, 2 hours, hydrochloride): 2430 µg/mL
Crystal form of the solid ([2]; Water, 4 hours, hydrochloride): B + F
Solubility ([2]; Water, 4 hours, hydrochloride): 2240 µg/mL
Crystal form of the solid ([2]; Water, 24 hours, hydrochloride): B + F
Solubility ([2]; Water, 24 hours, hydrochloride): 2610 µg/mL
Solubility ([2]; pH = 1.0 hydrochloric acid aqueous solution, 1 hour, hydrochloride): 270 µg/mL
Solubility ([2]; pH = 1.0 hydrochloric acid aqueous solution, 2 hours): 280 µg/mL
Solubility ([2]; pH = 1.0 hydrochloric acid aqueous solution, 4 hours, hydrochloride): 280 µg/mL
Solubility ([2]; pH = 1.0 hydrochloric acid aqueous solution, 24 hours, hydrochloride): 300 µg/mL
Crystal form of the solid [2, 11]: B + F
Solubility [2, 11]: 1910 µg/mL
Crystal form of the solid [2, 12]: B + F
Solubility [2, 12]: 2350 µg/mL
Crystal form of the solid [2, 13]: B + F
Solubility [2, 13]: 1990 µg/mL
Crystal form of the solid [2, 14]: B + F
Solubility [2, 14]: 2310 µg/mL
Crystal form of the solid ([2]; pH = 6.8 phosphate buffer, 1 hour): Free alkali
Solubility ([2]; pH = 6.8 phosphate buffer, 1 hour, hydrochloride): Not detected
Crystal form of the solid ([2]; pH = 6.8 phosphate buffer, 2 hours): Free alkali
Crystal form of the solid [2, 15]: Free alkali
Solubility [2, 15]: Not detected
Crystal form of the solid [2, 16]: Free alkali
Solubility [2, 16]: Not detected
solubility at 2 h ([2]; phosphate buffer, pH 6.8, aqueous buffer, thermodynamic from solid, pH = 6.8 phosphate buffer, 2 hours): 0.28 µg/mL
Dissolution amount ([3]; Medium Water, 5 min): Not detected
Dissolution amount ([3]; Medium Water, 10 min): 0.0002 mg/mL
Dissolution amount ([3]; Medium Water, 30 min): 0.0003 mg/mL
Dissolution amount ([3]; Medium Water, 45 min): 0.0009 mg/mL
Dissolution amount ([3]; Medium Water, 60 min): 0.0003 mg/mL
Dissolution amount ([3]; Medium Water, 90 min): 0.0004 mg/mL
Dissolution amount ([3]; Medium pH = 4.0, flow rate 4 mL/minute, 5 min): 0.0307 mg/mL
Dissolution amount ([3]; Medium pH = 4.0, flow rate 4 mL/minute, 10 min): 0.0404 mg/mL
Dissolution amount ([3]; Medium pH = 4.0, flow rate 4 mL/minute, 30 min): 0.0461 mg/mL
Dissolution amount ([3]; Medium pH = 4.0, flow rate 4 mL/minute, 45 min): 0.0488 mg/mL
Dissolution amount ([3]; Medium pH = 4.0, flow rate 4 mL/minute, 60 min): 0.0469 mg/mL
Dissolution amount ([3]; Medium pH = 4.0, flow rate 4 mL/minute, 90 min): 0.0487 mg/mL
Crystal form after ground (XRPD) [4]: partially crystal transformed into the crystal form A
Weight gain by water absorption (DVS) ([5]; 25.6 °C/90% RH): 0.30%
Hygroscopicity description ([5]; DVS, 90% RH, hydrochloride): slightly hygroscopic
Weight gain by water absorption (DVS) ([5]; vapor sorption at 25 °C/90% RH): 0.26%
Compression degree ([6]; (tap density − bulk density)/tap density): 58.0%
Bulk density ([6]; fixed-volume method, 50 mL): 0.14 g/mL
Tap density ([6]; fixed-volume method, after tapping): 0.33 g/mL
Angle of repose ([6]; pouring method with residual cone method): 64.95 °
Hausner ratio ([6]; tap density/bulk density): 2.4
PE bag adhesive rate [7]: 0.0003 g/cm^2
Maximum particle size [8]: less than 100 µm
Length/short diameter ratio ([8]; hydrochloride): 1-6
Microscopic morphology ([8]; hydrochloride): rod-shaped
